Key:
[1] = known radioprotective compounds; cited from earlier work
[2] = inhibitor activity on the polymerization of acrylic acid at 60° C.; assay type: biochemical; conditions: control 16 hours
Procedure: The efficiency of the compounds of the invention was investigated in vitro by measuring the inhibitor activity of the compounds on the polymerization of acrylic acid at 60° C., and comparing this activity with that of 3.5-di-tert.butyl-4-hydroxy-toluene (BHT) and L-ascorbic acid. The radical binding activity of the compounds was studied.
The times required to polymerization are given in the next Table.

[3] = tested on: mice; experiment: protection against hepatotoxic dimethylsulfoxide; assay type: in vivo; conditions: for death after dimethylsulfoxide / protective activity against dimethylsulfoxide: 100 mg. disulfonic acid or 60 mg. disulfonamide in water and dimethylsulfoxide, i.p. or s.c.
Procedure: The surrounding carcinogens play an important role in the formation of malignant tumors. These carcinogens contain free radicals or they become carcinogenic in the living organism. […] As the radical reactions may be controlled by the antioxidants, they may be employed as therapeutic and as prophylactic agents as well. […] A hepatotoxic substance had to be administered which was simultaneously carcinogenic. Dimethylsulfoxide was suitable. 0.3 ml. of dimethylsulfoxide/mice was administered i.p. or s.c. in an aqueous solution and as a result 7 animals died within 10 days out of 10 test animals.

[4] = tested on: cancer of the bladder; conditions: large amount of Vitamin-C; cited from earlier work
[5] = tested on: CFLP mice; experiment: protection against LD90 radiodose after i.p. administration; assay type: in vivo; conditions: 1000 mg./kg. i.p., preferably 2 hours before LD90 radiodose
Procedure: The unexpected activity of the new compounds has been observed during a total body irradiation. As test animals CFLP mice of an average weight of 20 to 22 g. were used, each group consisted of 8 male and 8 female animals. The control group was irradiated with 7 Gy (total body irradiation) and the test groups were treated per os for 10 days with the new water-soluble antioxidant of the invention at a daily dose of 0.5 g./kg. The treatment was followed by 7 Gy total body irradiation. There was no significant difference between the various water-soluble antioxidants and as a result within 30 days two animals of the control group were alive and an average of 12 animals survived in the treated group. A significant result was obtained with X^2 probe, p<0.001 and the Dose Modification Factor (DMF), which is the number of dead animals in the control group related to the number of dead animals in the treated group, amounted to 3.5 at LD80. A dose of 1000 mg./kg. bodyweight of MTDQ disulfonic acid Na was administered i.p. preferably 2 hours before irradiation with an LD90 radiodose and a 100% protective activity was obtained. […] It is known that the radioprotective compounds protect the healthy tissue cells better than the malignant tumor cells.

[6] = plasma concentration; assay type: in vivo
Text: (§1) The concentration of the found MTDQ was the same as if it had not been the compound of the invention that had been administered, but rather MTDQ. […] The radioprotective activity of the water-soluble antioxidant is presumably due to the fact that the radiation energy is predominantly concentrated on the antioxidant and further that in addition to its membrane stabilizing activity the radicals and peroxides formed in the course of the irradiation, are inactivated by the antioxidant, in the well oxygenated cells.

[7] = detection of MTDQ in the liver; assay type: in vivo; conditions: after administration of the compound of the invention
Text: as §1

[8] = tested on: malignant tumor tissues; conditions: cited from earlier work

For `Br.Br.N=C(N)SCCN` [AET, S-2-aminoethyl-isothiuronium-dihydrobromide], the “duration of effect after administration” value [1] is given as “extremely limited” and the “effective doses as radioprotective compound” value (from here on “effective doses”) [1] is given as “effective only at subtoxic doses”.
For `Cc1cc(C(C)(C)C)c(O)c(C(C)(C)C)c1` [BHT, 3.5-di-tert.butyl-4-hydroxy-toluene], the “times required to polymerization” value ([2]; 0.02%) was 120 h.
For `C[S+](C)[O-]` [Dimethylsulfoxide], the “animals died within 10 days” value ([3]; 0.3 ml./mice i.p. or s.c., out of 10 test animals) was 7 animals.
In the case of `O=C1O[C@H]([C@@H](O)CO)C(O)=C1O` [L-ascorbic acid], the “cancer of the bladder by beta-naphthyl-amine” value [4] is given as “does not cause cancer of the bladder” and the “times required to polymerization” value ([2]; 0.02%) is given as 18 h.
`CC1(C)C=C(CS(=O)(=O)O)c2cc(Cc3ccc4c(c3)C(CS(=O)(=O)O)=CC(C)(C)N4)ccc2N1` [MTDQ disulfonic acid Na, 6,6'-methylene-bis(2,2-dimethyl-4-methanesulfonic acid Na-1,2-dihydroquinoline)] gave a protective activity [5] of 100%.
For `CC1=CC(C)(C)Nc2ccc(Cc3ccc4c(c3)C(C)=CC(C)(C)N4)cc21` [MTDQ, 6,6'-methylene-bis(2,2,4-trimethyl-1,2-dihydroquinoline)], the “concentration of found MTDQ compared with administration of MTDQ itself” value ([6]; after administration of the compound of the invention) was “the same”, the “MTDQ in the plasma as metabolite (desulfonation)” value ([6]; after administration of the new compounds) was “found in the plasma” and the “MTDQ in the liver” value [7] was “could be detected in the liver”. For the same compound, the “radiosensibility of malignant tumor tissues” value ([8]; in vivo) was “increase the radiosensibility of malignant tumor tissues” and the “reduction of radiodose for the same effect” value ([8]; radiosensitive tumors) was “at least 50%”.
With `CC1(C)C=C(CS(=O)(=O)O)c2cc(Cc3ccc4c(c3)C(CS(=O)(=O)O)=CC(C)(C)N4)ccc2N1` [MTDQ-disulfonic acid] the death after dimethylsulfoxide [3] was “no death was observed”, the “protective activity against dimethylsulfoxide” value [3] was 100% and the “times required to polymerization” value ([2]; concentration not given) was 400 h.
For `NCCCNCCSP(=O)(O)O` [WR 2721, S-2-(3-aminopropyl)-aminoethyl-phosphorothioic acid], the “duration of effect after administration” value [1] is given as “extremely limited” and the “effective doses” value [1] is given as “effective only at subtoxic doses”.
For `NCCS` [cysteamine, beta-mercapto-ethyl-amine], the “duration of effect after administration” value [1] is listed as “extremely limited” and the “effective doses” value [1] is listed as “effective only at subtoxic doses”.
For `N[C@@H](CS)C(=O)O` [cysteine], the “duration of effect after administration” value [1] is given as “extremely limited” and the “effective doses” value [1] is given as “effective only at subtoxic doses”.
With `CC1(C)C=C(CS(N)(=O)=O)c2cc(Cc3ccc4c(c3)C(CS(N)(=O)=O)=CC(C)(C)N4)ccc2N1` [disulfonamide] the death after dimethylsulfoxide [3] was “no death was observed” and the “protective activity against dimethylsulfoxide” value [3] was 100%.
